From US7265152B2 (ViroPharma Incorporated, priority 2002, dated 2007)
Where two headings read alike, the source gives them in different places.

Experiments:
HCV NS5B = target: T1, HCV NS5B (Hepatitis C virus genotype 1b, UniProt Q9WMX2); test: Inhibition of viral RNA-dependent RNA polymerase (RdRp), in vitro biochemical assay; set-up: species or system HCV genotype 1b virus (BB7); conditions: read-out: HCV pol-BB7 IC50
T1 construct: fusion protein, of which the carboxyl terminal 21 amino acids were removed to enhance its solubility; His tag (GSHHHHHH); made in house; host or cells: E. coli
In short: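 Purified recombinant NS5B from a genotype 1b consensus (BB7), His-tagged, E. coli-expressed, with the C-terminal 21 residues deleted. Inhibition of RdRp activity in vitro was measured, and IC50 is the concentration giving 50% inhibition.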

[1] = system: HCV replicon (BB7 sequence) in Huh-7-Clone A cells; test: HCV replicon assay: ELISA of NS5A protein in replicon-containing cells (Inhibition of Viral RNA Replication); format: cell-based
In short: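 Huh-7-Clone A cells carrying subgenomic BB7 HCV replicon (G418-selectable) incubated 72 h with compound. NS5A protein quantified by cell ELISA: glutaraldehyde fixation, anti-NS5A monoclonal plus HRP secondary, TMB read at OD 650 nm. EC50 derived from 8-point serial dilution dose curve.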

[2] = Hepatitis C virus, HCV replicon assay, ranges of EC50, read-out: Replicon
[3] = HCV NS5B RdRp, BB7, class symbols A-D
[4] = HCV NS5B polymerase, BB7 (genotype 1b), values given as range classes A-D
[5] = Hepatitis C virus, HCV replicon assay, ranges of 50% effective concentration (EC50), read-out: Replicon
[6] = Hepatitis C virus, ranges of EC50 in HCV replicon assay, read-out: Replicon
[7] = purified His-tagged NS5B (BB7), carboxyl terminal 21 amino acids removed
[8] = Hepatitis C virus, Huh-7-Clone A, NS5A ELISA, 72-hour incubation, ranges of EC50, read-out: Replicon
[9] = HCV NS5B RdRp, BB7, reported as range class
[10] = Hepatitis C virus, HCV replicon, range of EC50, read-out: Replicon

Compound: CNC(=O)c1c(-c2ccc(F)cc2)oc2cc(N(Cc3ccccc3)S(C)(=O)=O)c(OC(C)C)cc12 [Example 361, 6-(Benzyl-methanesulfonyl-amino)-2-(4-fluoro-phenyl)-5-isopropoxy-benzofuran-3-carboxylic acid methylamide]
- IC50 (HCV NS5B; HCV NS5B RdRp, BB7, activity class): ≤ 500 nM
- EC50 [1, 2]: < 1 µM

Compound: 2-(4-Fluoro-phenyl)-6-(1H-imidazol-4-yl)-5-methoxy-benzofuran-3-carboxylic acid methylamide [Example 295]
- IC50 (HCV NS5B; [3]): ≤ 500 nM
- EC50 ([1]; HCV replicon assay, ranges of EC50, read-out: Replicon): < 10 µM

Compound: CNC(=O)c1c(-c2ccc(F)cc2)oc2cc(C3NC(=O)NC3=O)c(OC)cc12 (stereo not drawn) [Example 406, 6-(2,5-Dioxo-imidazolidin-4-yl)-2-(4-fluoro-phenyl)-5-methoxy-benzofuran-3-carboxylic acid methylamide]
- IC50 (HCV NS5B; [4]): 500 to 5000 nM
- EC50 [1, 5]: < 1 µM

Compound: CNC(=O)c1c(-c2ccc(F)cc2)oc2cc(Br)c(OC(C)C)cc12 [Example 92, 6-Bromo-2-(4-fluoro-phenyl)-5-isopropoxy-benzofuran-3-carboxylic acid methylamide]
- IC50 (HCV NS5B; HCV NS5B RdRp, BB7 genotype 1b): ≤ 500 nM
- EC50 [1, 6]: < 1 µM

Compound: CNC(=O)c1c(-c2ccc(F)cc2)oc2cc(N3CCOCC3)c(OCc3nccs3)cc12 [Example 33, 2-(4-Fluoro-phenyl)-6-morpholin-4-yl-5-(thiazol-2-ylmethoxy)-benzofuran-3-carboxylic acid methylamide]
- IC50 (HCV NS5B; [7]): ≤ 500 nM
- EC50 [1, 8]: < 1 µM

Compound: CNC(=O)c1c(-c2ccc(F)cc2)oc2cc(N(CCO)S(C)(=O)=O)c(OC(C)C)cc12 [Example 164, 2-(4-Fluoro-phenyl)-6-[(2-hydroxy-ethyl)-methanesulfonyl-amino]-5-isopropoxy-benzofuran-3-carboxylic acid methylamide]
- IC50 (HCV NS5B; HCV NS5B RdRp, BB7 genotype 1b): ≤ 500 nM
- EC50 [1, 6]: < 10 µM

Compound: CNC(=O)c1c(-c2occc2C)oc2ccc(OC(C)C)cc12 [Example 121, 5-Isopropoxy-2-(3-methyl-furan-2-yl)-benzofuran-3-carboxylic acid methylamide]
- IC50 (HCV NS5B; HCV NS5B RdRp, BB7 genotype 1b): 500 to 5000 nM
- EC50 [1, 6]: < 30 µM

Compound: CCN(CC)c1cc2oc(-c3ccc(F)cc3)c(C(=O)NC)c2cc1OC(C)C [Example 23, 6-Diethylamino-2-(4-fluoro-phenyl)-5-isopropoxy-benzofuran-3-carboxylic acid methylamide]
- IC50 (HCV NS5B; [7]): ≤ 500 nM
- EC50 [1, 8]: < 1 µM

Compound: CNC(=O)c1c(-c2ccc(F)cc2)oc2cc(N(C)S(C)(=O)=O)c(OCc3csc(C)n3)cc12 [Example 320, 2-(4-Fluoro-phenyl)-6-(methanesulfonyl-methyl-amino)-5-(2-methyl-thiazol-4-ylmethoxy)-benzofuran-3-carboxylic acid methylamide]
- IC50 (HCV NS5B; [3]): ≤ 500 nM
- EC50 [1, 2]: < 1 µM

Compound: CNC(=O)c1c(-c2ccc(F)cc2)oc2cc(N(COC)S(C)(=O)=O)c(O)cc12 [Example 444, 2-(4-Fluoro-phenyl)-5-hydroxy-6-(methanesulfonyl-methoxymethyl-amino)-benzofuran-3-carboxylic acid methylamide]
- IC50 (HCV NS5B; HCV NS5B RdRp, BB7 (genotype 1b), reported as class symbols): ≤ 500 nM
- EC50 [1, 2]: < 10 µM

Compound: CNC(=O)c1c(-c2ccc(F)cc2)oc2cc(N(C(C)C)S(C)(=O)=O)c(OC(C)C)cc12 [Example 136, 2-(4-Fluoro-phenyl)-5-isopropoxy-6-(isopropyl-methanesulfonyl-amino)-benzofuran-3-carboxylic acid methylamide]
- IC50 (HCV NS5B; HCV NS5B RdRp, BB7 genotype 1b): ≤ 500 nM
- EC50 [1, 6]: < 1 µM

Compound: CNC(=O)c1c(-c2ccc(F)cc2)oc2cc(N(C)S(C)(=O)=O)c(OCc3cc(C)on3)cc12 [Example 396, 2-(4-Fluoro-phenyl)-6-(methanesulfonyl-methyl-amino)-5-(5-methyl-isoxazol-3-ylmethoxy)-benzofuran-3-carboxylic acid methylamide]
- IC50 (HCV NS5B; [4]): ≤ 500 nM
- EC50 [1, 5]: < 1 µM

Compound: CNC(=O)c1c(-c2ccc(F)cc2)oc2cc(N(C(C)C)S(C)(=O)=O)c(OC)cc12 [Example 221, 2-(4-Fluoro-phenyl)-6-(isopropyl-methanesulfonyl-amino)-5-methoxy-benzofuran-3-carboxylic acid methylamide]
- IC50 (HCV NS5B; [9]): ≤ 500 nM
- EC50 [1, 10]: < 1 µM

Compound: CNC(=O)c1c(-c2ccc(F)cc2)oc2cc(N(C)S(C)(=O)=O)c(OCC(=O)Nc3nncs3)cc12 [Example 416, 2-(4-Fluoro-phenyl)-6-(methanesulfonyl-methyl-amino)-5-([1,3,4]thiadiazol-2-ylcarbamoylmethoxy)-benzofuran-3-carboxylic acid methylamide]
- IC50 (HCV NS5B; [4]): ≤ 500 nM
- EC50 [1, 5]: < 1 µM

Compound: CNC(=O)c1c(-c2ccc(F)cc2)oc2cc(N3CCOCC3)c(OC(C)C#N)cc12 (stereo not drawn) [Example 229, 5-(Cyano-methyl-methoxy)-2-(4-fluoro-phenyl)-6-morpholin-4-yl-benzofuran-3-carboxylic acid methylamide]
- IC50 (HCV NS5B; [9]): ≤ 500 nM
- EC50 [1, 10]: < 10 µM

Compound: CNC(=O)c1c(-c2ccc(F)cc2)oc2cc(-c3c(C)nn(C)c3C)c(OC(C)C)cc12 [Example 264, 2-(4-Fluoro-phenyl)-5-isopropoxy-6-(1,3,5-trimethyl-1H-pyrazol-4-yl)-benzofuran-3-carboxylic acid methylamide]
- IC50 (HCV NS5B; [3]): 500 to 5000 nM
- EC50 [1, 2]: < 10 µM

Compound: CNC(=O)c1c(-c2ccc(F)cc2)oc2cc(N(CCOC)S(C)(=O)=O)c(OC(C)C)cc12 [Example 193, 2-(4-Fluoro-phenyl)-5-isopropoxy-6-[methanesulfonyl-(2-methoxy-ethyl)-amino]-benzofuran-3-carboxylic acid methylamide]
- IC50 (HCV NS5B; [9]): ≤ 500 nM
- EC50 [1, 10]: < 1 µM

Compound: CNC(=O)c1c(-c2ccc(F)cc2)oc2cc(-c3c(C)noc3C)c(OCC3CC3)cc12 [Example 428, 5-Cyclopropylmethoxy-6-(3,5-dimethyl-isoxazol-4-yl)-2-(4-fluoro-phenyl)-benzofuran-3-carboxylic acid methylamide]
- IC50 (HCV NS5B; [4]): ≤ 500 nM
- EC50 [1, 5]: < 1 µM

Compound: CNC(=O)c1c(-c2ccc(F)cc2)oc2cc(NS(C)(=O)=O)c(O)cc12 [Example 174, 2-(4-Fluoro-phenyl)-5-hydroxy-6-methanesulfonylamino-benzofuran-3-carboxylic acid methylamide]
- IC50 (HCV NS5B; [9]): 500 to 5000 nM
- EC50 [1, 10]: < 30 µM

Compound: 2-(2,4-Difluoro-phenyl)-5-isopropoxy-benzofuran-3-carboxylic acid methylamide [Example 91]
- IC50 (HCV NS5B; HCV NS5B RdRp, BB7 genotype 1b): ≤ 500 nM
- EC50 ([1]; ranges of EC50 in HCV replicon assay, read-out: Replicon): < 30 µM

Compound: CNC(=O)c1c(-c2ccc(F)cc2)oc2cc(N(CC(C)O)S(C)(=O)=O)c(OC(C)C)cc12 (stereo not drawn) [Example 253, 2-(4-Fluoro-phenyl)-6-[(2-hydroxy-propyl)-methanesulfonyl-amino]-5-isopropoxy-benzofuran-3-carboxylic acid methylamide]
- IC50 (HCV NS5B; [3]): ≤ 500 nM
- EC50 [1, 2]: < 1 µM

Compound: CNC(=O)c1c(-c2ccc(F)cc2)oc2cc(NC(C)(C)C)c(OC(C)C)cc12 [Example 148, 6-tert-Butylamino-2-(4-fluoro-phenyl)-5-isopropoxy-benzofuran-3-carboxylic acid methylamide]
- IC50 (HCV NS5B; HCV NS5B RdRp, BB7 genotype 1b): ≤ 500 nM
- EC50 [1, 6]: < 10 µM

Compound: CCS(=O)(=O)Nc1cc2oc(-c3ccc(F)cc3)c(C(=O)NC)c2cc1OC(C)C [Example 156]
- IC50 (HCV NS5B; HCV NS5B RdRp, BB7 genotype 1b): ≤ 500 nM
- EC50 ([1]; Hepatitis C virus, read-out: Replicon (μM)): < 10 µM

Compound: CNC(=O)c1c(-c2ccc(F)cc2)oc2cc(N(C)S(C)(=O)=O)c(OCc3ccc(C(=O)O)c(O)c3)cc12 [Example 39, 4-[2-(4-Fluoro-phenyl)-6-(methanesulfonyl-methyl-amino)-3-methylcarbamoyl-benzofuran-5-yloxymethyl]-2-hydroxy-benzoic acid]
- IC50 (HCV NS5B; [7]): ≤ 500 nM
- EC50 [1, 8]: < 10 µM
